Data reported in US8153683B2, “Methods of treatment using a prodrug of an excitatory amino acid” (Eli Lilly and Company, priority 2002, dated 2012).

Test: In Vivo Exposure as Measured by Rat Plasma Concentration
Details: Fischer 344 male rats, sum of the concentrations at 0.5 and 1 hour or at 1 and 3 hour, LC/MS/MS
Experimental: To study the in vivo exposure of compounds of Formula II following oral dosing of compounds of Formula I in comparison to compounds of Formula II, studies measuring the plasma concentrations of the respective compound of Formula II in rats are performed. Mature Fischer 344 male rats (190-270 gram) are obtained from Harlan Sprague-Dawley, Cumberland, Ind., USA, and acclimated in the study housing for 3 days. […] Blood samples are collected through orbital sinus or cardiac puncture (last time point) at 0.5 and 1 hour or, alternatively, at 1 and 3 hours. Plasma samples are stored at −20° C. in the presence of phenylmethylsulfonyl fluoride, a protease inhibitor, prior to analysis. Plasma samples and internal standard compounds are pretreated by solid phase extraction (SAX support, methanol/water/dilute acetic acid).
As shown in Tables 1A and 1B below, the plasma concentrations (ng/ml) of the respective compound of Formula II for each test compound are determined by LC/MS/MS and are presented as a sum of the concentrations at the 0.5 and 1 hour or, alternatively, at the 1 and 3 hour sample time points.

Rat Exposure (ng/ml of (1R,4S,5S,6S)-4-(2′S-Aminopropionyl)amino-]-2,2-dioxo-2λ^6-thia-bicyclo[3.1.0.]hexane-4,6-dicarboxylic acid hydrochloride) (following 5 mg/kg p.o.)	Rat Exposure (ng/ml of (1R,2S,4R,5R,6R)-2-(2′S-Aminopropionyl)amino-4-fluorobicyclo[3.1.0]hexane-2,6-dicarboxylic acid hydrochloride) (following 10 mg/kg p.o.)	SMILES	Rat Exposure (ng/ml of (1R,2S,4R,5R,6R)-2-(2′S-Aminopropionyl)amino-4-fluorobicyclo[3.1.0]hexane-2,6-dicarboxylic acid hydrochloride) (following 5 mg/kg p.o.)
1521 ng/ml (following 5 mg/kg p.o.)	–	N[C@@]1(C(=O)O)CS(=O)(=O)[C@H]2[C@H](C(=O)O)[C@H]21 [Non-prodrug form of Example 1, (1R,4S,5S,6S)-4-Amino-2,2-dioxo-2λ^6-thia-bicyclo[3.1.0]hexane-4,6-dicarboxylic acid]	–
–	1342 ng/ml (following 10 mg/kg p.o.)	N[C@@]1(C(=O)O)C[C@@H](F)[C@H]2[C@H](C(=O)O)[C@H]21 [Non-prodrug form of Example 14, 1R,2S,4R,5R,6R-2-amino-4-fluorobicyclo[3.1.0]hexane-2,6-dicarboxylic acid]	1162 ng/ml (following 5 mg/kg p.o.)
–	–	C[C@H](N)C(=O)N[C@@]1(C(=O)O)C[C@@H](F)[C@H]2[C@H](C(=O)O)[C@H]21.Cl [Example 14, (1R,2S,4R,5R,6R)-2-(2′S-Amino-propionyl)amino-4-fluorobicyclo[3.1.0]hexane-2,6-dicarboxylic acid hydrochloride]	5271 ng/ml (following 5 mg/kg p.o.)
